These are literature values, as cited in US12194020B2, “Reversing baldness through cannabinoid receptor activation” (priority 2017, dated 2025).

In data set [1] the test system is human scalp hair follicles (HF). Conditions: human HF organ culture.
The target of the next data set is CB2 (Homo sapiens, UniProt P34972).
The conditions of data set [2]: bimatoprost applied to the base of the fingernails.
The next data set has as its system NO production. As to conditions: read-out: IC50, inhibits NO production.

Sequence of CB2 (P34972 whole entry, species assumed): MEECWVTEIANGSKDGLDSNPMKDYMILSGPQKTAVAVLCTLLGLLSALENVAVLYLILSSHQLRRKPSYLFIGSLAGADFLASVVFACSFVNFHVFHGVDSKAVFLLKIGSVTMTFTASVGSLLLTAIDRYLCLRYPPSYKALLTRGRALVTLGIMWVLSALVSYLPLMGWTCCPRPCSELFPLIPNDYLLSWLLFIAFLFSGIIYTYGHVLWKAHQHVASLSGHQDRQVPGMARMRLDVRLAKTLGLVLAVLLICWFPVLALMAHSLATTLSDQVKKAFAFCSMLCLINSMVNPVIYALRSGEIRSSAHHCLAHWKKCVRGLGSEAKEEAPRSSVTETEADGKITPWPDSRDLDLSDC

Take `CCCCC/C=C\C/C=C\C/C=C\C/C=C\CCCC(=O)NCCO` [AEA, N-arachidonoylethanolamide]: in data set [1], the “apoptosis of cultured human HF / hair matrix keratinocytes” value is “stimulates apoptosis”; the “hair matrix / HF keratinocyte proliferation” value is “significantly (P<0.05) and dose-dependently inhibited”; the hair shaft elongation entry is “significantly (P<0.05) and dose-dependently inhibited”.
`Cc1c(C(=O)NN2CCCCC2)nn(-c2ccc(Cl)cc2Cl)c1-c1ccc(Cl)cc1` [SR141716A]: the “affinity for CB2” value at CB2 is “very low affinity”.
Turning to `CCCCCc1cc(O)c2c(c1)OC(C)(C)[C@@H]1CCC(C)=C[C@@H]21` [THC, Δ^9-tetrahydrocannabinol], in data set [1], the “apoptosis of cultured human HF / hair matrix keratinocytes” value is “induced”, the catagen development entry is “premature catagen development”, the “hair matrix / HF keratinocyte proliferation” value is reported as “suppressed proliferation” and the hair shaft elongation entry is “significantly inhibited”.
For `CCNC(=O)CCC/C=C\C[C@@H]1[C@@H](/C=C/[C@@H](O)CCc2ccccc2)[C@H](O)C[C@@H]1O` [bimatoprost], in data set [2], the “increase in fingernail growth from baseline” value is on record as 16.9%.
As for `C=CCc1ccc(O)c(-c2cc(CC=C)ccc2O)c1` [magnolol], the IC50 in the data set on NO production is ~6.2 µM.
As for desulfohaplosamate, the “affinity for CB2” value on CB2 is reported as “higher affinity”.
For haplosamate A, the “affinity for CB1” value with CB1 is “strong affinity”.

For orientation: IC50 means the concentration that inhibits the measured activity by half.
